Reference: ChEMBL document CHEMBL1128751, “Isolation and structure of the human cancer cell growth inhibitory cyclic decapeptides phakellistatins 7, 8 and 91,2” (1995)
Converted amounts (≈) assume the structure as drawn. Where a SMILES comes first, the peptide text is derived from it.

Tests used:
NCI = test: Overall panel averaged growth inhibitory concentration against the U. S. National Cancer Institute panel of sixty human cancer cell lines; type: functional
P388 = test: In vitro inhibition of growth of p388 cells; type: functional; details: Mus musculus, read-out: ED50 (the source's name)

Compound	GI50 (NCI) [µM]	EC50 (P388) [µg/mL]
CC[C@H](C)[C@@H]1NC(=O)[C@@H]2CCCN2C(=O)[C@@H]2CCCN2C(=O)[C@H]([C@@H](C)CC)NC(=O)[C@H](Cc2ccc(O)cc2)NC(=O)[C@@H]2CCCN2C(=O)[C@@H]2CCCN2C(=O)[C@H](CC(C)C)NC(=O)[C@H](C)NC(=O)[C@H](Cc2ccccc2)NC1=O (cyclo(ALPPYIPPIF))	0.55	3 (≈ 2.7 µM)
CC[C@H](C)[C@@H]1NC(=O)[C@@H]2CCCN2C(=O)[C@@H]2CCCN2C(=O)[C@H]([C@@H](C)CC)NC(=O)[C@H](Cc2ccc(O)cc2)NC(=O)[C@@H]2CCCN2C(=O)[C@@H]2CCCN2C(=O)[C@H](CC(C)C)NC(=O)[C@H](C(C)C)NC(=O)[C@H](Cc2ccccc2)NC1=O (cyclo(FVLPPYIPPI))	> 10	2.9 (≈ 2.55 µM)
CC[C@H](C)[C@@H]1NC(=O)[C@@H]2CCCN2C(=O)[C@@H]2CCCN2C(=O)[C@H](C(C)C)NC(=O)[C@H](Cc2ccc(O)cc2)NC(=O)[C@@H]2CCCN2C(=O)[C@@H]2CCCN2C(=O)[C@H](CC(C)C)NC(=O)[C@H](C(C)C)NC(=O)[C@H](Cc2ccccc2)NC1=O (cyclo(FVLPPYVPPI))	> 10	4.1 (≈ 3.65 µM)
